Results: the NIST ThermoML archive (doi:10.1021/je4009415)

Assay: xn = mol fraction of the nth substance listed
Details: Liquid, Vibrating tube method

CCOC(=O)CC [ethyl propanoate] + CCCCCCC
Details	mass density [kg/m3]
288.15 K, x1 = 0.0524	695.91
288.15 K, x1 = 0.0988	703.07
288.15 K, x1 = 0.1463	710.63
288.15 K, x1 = 0.1941	718.6
288.15 K, x1 = 0.2514	728.31
288.15 K, x1 = 0.3018	737.02
288.15 K, x1 = 0.3473	745.24
288.15 K, x1 = 0.4004	755.32
288.15 K, x1 = 0.4483	764.49
288.15 K, x1 = 0.5023	775.33
288.15 K, x1 = 0.5493	785.04
288.15 K, x1 = 0.6523	807.55
288.15 K, x1 = 0.7155	821.91
288.15 K, x1 = 0.7532	830.95
288.15 K, x1 = 0.7965	841.54
288.15 K, x1 = 0.8566	856.59
288.15 K, x1 = 0.9037	868.82
288.15 K, x1 = 0.9502	881.54
288.15 K, x1 = 1	895.58
298.15 K, x1 = 0.0502	687.02
298.15 K, x1 = 0.0966	693.85
298.15 K, x1 = 0.1618	704.16
298.15 K, x1 = 0.24	717.15
298.15 K, x1 = 0.3102	729.24
298.15 K, x1 = 0.401	745.76
298.15 K, x1 = 0.4502	755.12
298.15 K, x1 = 0.5047	765.87
298.15 K, x1 = 0.598	785.24
298.15 K, x1 = 0.6478	796.11
298.15 K, x1 = 0.6968	807.1
298.15 K, x1 = 0.7456	818.46
298.15 K, x1 = 0.7933	829.93
298.15 K, x1 = 0.8547	845.07
298.15 K, x1 = 0.9029	857.64
298.15 K, x1 = 0.952	870.77
298.15 K, x1 = 1	884.15
308.15 K, x1 = 0.0489	677.99
308.15 K, x1 = 0.0972	685.13
308.15 K, x1 = 0.1622	695.08
308.15 K, x1 = 0.2109	702.86
308.15 K, x1 = 0.2409	707.93
308.15 K, x1 = 0.3084	719.36
308.15 K, x1 = 0.352	727.08
308.15 K, x1 = 0.4029	736.28
308.15 K, x1 = 0.44	743.31
308.15 K, x1 = 0.5033	755.53
308.15 K, x1 = 0.5515	765.29
308.15 K, x1 = 0.6049	776.34
308.15 K, x1 = 0.6546	787.12
308.15 K, x1 = 0.6957	796.27
308.15 K, x1 = 0.7472	808.1
308.15 K, x1 = 0.8001	820.72
308.15 K, x1 = 0.8549	834.09
308.15 K, x1 = 0.8932	843.97
308.15 K, x1 = 0.949	858.62
308.15 K, x1 = 1	872.62
318.15 K, x1 = 0.0535	669.87
318.15 K, x1 = 0.0979	676.31
318.15 K, x1 = 0.1459	683.47
318.15 K, x1 = 0.2045	692.71
318.15 K, x1 = 0.262	702.04
318.15 K, x1 = 0.3009	708.59
318.15 K, x1 = 0.3494	717.01
318.15 K, x1 = 0.4057	727.08
318.15 K, x1 = 0.4487	735.05
318.15 K, x1 = 0.5052	745.9
318.15 K, x1 = 0.552	755.16
318.15 K, x1 = 0.5969	764.38
318.15 K, x1 = 0.6529	776.27
318.15 K, x1 = 0.7022	787.15
318.15 K, x1 = 0.7467	797.21
318.15 K, x1 = 0.7935	808.2
318.15 K, x1 = 0.8452	820.6
318.15 K, x1 = 0.8929	832.6
318.15 K, x1 = 0.9484	847.05
318.15 K, x1 = 1	861.08
328.15 K, x1 = 0.0528	660.86
328.15 K, x1 = 0.1065	668.58
328.15 K, x1 = 0.1619	676.84
328.15 K, x1 = 0.2123	684.53
328.15 K, x1 = 0.2511	690.83
328.15 K, x1 = 0.3081	700.22
328.15 K, x1 = 0.3519	707.73
328.15 K, x1 = 0.4084	717.71
328.15 K, x1 = 0.4478	724.83
328.15 K, x1 = 0.5074	736.13
328.15 K, x1 = 0.5522	744.86
328.15 K, x1 = 0.6033	755.17
328.15 K, x1 = 0.6454	764.1
328.15 K, x1 = 0.7023	776.34
328.15 K, x1 = 0.7443	785.77
328.15 K, x1 = 0.7989	798.4
328.15 K, x1 = 0.8593	812.97
328.15 K, x1 = 0.8983	822.61
328.15 K, x1 = 0.9494	835.87
328.15 K, x1 = 1	849.41
